The nature of series [1]: Zeta potential before and after incubation with NE. Format: physicochemical. Conditions: 20 µM, mean ± s.d., n = 3. How it is done: Submitted to Advanced Science temperature. Following the incubation, 10 µL of the solution was added to a copper mesh at 0 and 24 h. Filter paper was used to remove any extra droplets after an overnight stay. The samples were then stained for five minutes with uranyl acetate and then rinsed for one minute with water (10 µL). Finally, dried samples were observed by TEM (Talos 120C, Thermo Fisher Scientific, USA). DLS (Zetasizer Nano ZS, UK) was used to assess the solution for hydrodynamic size and zeta potential at 0 and 24 h following the incubation. Then, the nanofiber structure at 0 h and 24 h after incubation of FTP-NPs was examined with Circular Dichroism (CD) Spectra (Chirascan, UM, Britain). In addition, the variation of fluorescence emission spectra of PpIX by […]
transformation of FTP-NPs.
Pyrene molecules were employed as an indicator to determine the critical aggregation concentration (CAC) of nanoparticles by comparing the fluorescence of their third and first emissive peaks. […] The fluorescence spectra of pyrene (excitation, 335 nm) in different NPs dilutions were recorded. The fluorescence intensity ratio (I3/I1) of the third and first emissive peaks was measured for CAC calculation. […]
Figure S3. […] (a, b) Changes in fluorescence and UV–vis absorption of FTP-NPs following the gradual addition of water (from 0 to 99.5%) to a solution of NPs in Dimethyl Sulfoxide (DMSO). […]

The next series deals with activated neutrophils. Put plainly: CCK-8 cytotoxicity. Format: cell-based, mouse. As to conditions: CCK-8, 24 h, different dosages. How it is done: The supernatant was discarded, and the red blood cells were lysed with RBC lysate. The neutrophils were then washed with PBS again, and the supernatant was discarded. The cells were resuspended in culture medium and used for further experiments. […]
Briefly, FTP-NPs were prepared by self-assembly of peptidic nanomaterials and adjusted to various concentrations (0, 50, 100, 200, 400, 800, 1000 μg/mL). […]
10 minutes to remove unbound particles, and the supernatant was collected. […]
In vitro cytotoxicity assay
The CCK-8 assay was used to assess the cell viability of Hepa1-6/luc, resting neutrophils, and activated neutrophils. Following the seeding of 1*10^4 cells per well on a 96-well plate, the cells were subjected to different dosages of FTP-NPs and NFTP-NPs (medium: DMSO = 99:1 v/v). After 24 hours, the cells were incubated for two hours with 10 µL of CCK-8 solution. Finally, a microplate reader (Tecan Infinite M200, Switzerland) was used to measure cell viability based on the absorbance values.
Targeting the capability of NEBP
To evaluate the targeting capability of NE-binding peptide (NEBP), the harvested resting neutrophils and […]

The next series deals with Hepa1-6 cells. As to the kind of experiment: Scratch (wound healing) assay. Format: cell-based, mouse. Conditions: 24 h, medium from activated neutrophils treated with NPs, mean ± s.d., n = 3. How it is done: Cell migration and invasion assay
To produce cell gaps for cell scratch tests, Hepa1-6/luc cells were injected into culture inserts (IBIDI, Germany).
After 24 hours, the cells were treated with Resting neutrophils, Control, NFTP-NPs, FTP-NPs, and NEi groups.
Cell migration was monitored during the overnight culture of the cells. […]
Matrigel tube formation assay
Murine C166 endothelial cells (3×10^4cells/well) were placed on 96-well plates coated with Matrigel (356231,
Corning, New York, USA) and incubated with various treatments. […]
In vitro permeability assays and trans-endothelial invasion assays
For in vitro permeability assays, C166 cells were treated with Resting neutrophils, Control, NFTP-NPs, FTP-
NPs, and NEi groups for 48 h to form an endothelial monolayer, and then Evans Blue (PHYGENE, China) was
added to the upper layer of the transwell filters (0.4 μm, Corning). […]
All the experiments were performed thrice. […]

This note sets out measurements from publication PMC12767106, “In Situ Assembly of Transformable Monopeptide on Activated Neutrophils Attenuates NETs‐Induced Hepatocellular Carcinoma Metastasis by Disrupting NE Nuclear Translocation” (Advanced Science, 2025).

With PpIX-GFFVLK-EAIPMSIPPEVK [FTP-NPs], the “zeta potential, initial NPs” value in series [1] (before fibrillar transformation) was 21.7±0.6 mV. In addition, the “zeta potential after fibrillar transformation” value in series [1] (with NE for 24 h) was found to be 9.2±0.2 mV. The survival rate result in the series on activated neutrophils is recorded as “over 95%”. Besides, the wound healing rate with Hepa1-6 cells was 5.2% ± 1.8%.
